# Laboratory results from patent US7157487B2, “Vla-4 inhibitors” (Daiichi Pharmaceutical Co., Ltd., priority 2000, dated 2007).
# pKi: −log10 of the molar value.
# Molecular target: T1, integrins haα4 and β1 (VLA-4) expressed on CHO cells (Homo sapiens, UniProt P05556+P13612)
# T1 construct: expressed in transfected cells; host or cells: CHO cells
# Experiment: In vitro Evaluation Test (1): binding of Eu3+-hVCAM-1 D1D7-IgG to CHO cells expressing integrins α4 and β1
# Conditions: inhibition of Eu3+-hVCAM-1 D1D7-IgG binding to CHO cells expressing α4β1; Ki calculated from IC50
# Protocol: CHO cells forcedly expressed by the transduction of integrins haα4 and β1 were seeded in a Coster 3599 plate (3×10^4 cells/100 μl/well) and they were cultured for 2 days. After the medium was washed with buffer A* twice, 50 μl/well of Eu^3+-hVCAM-1 D1D7-IgG diluted to […] with an assay buffer ** was added. To the resulting well was added 50 μl/well of a test compound diluted with 2% DMS0-assay buffer (in the presence or absence of 6% human serum albumin) (to a well subjected to Scatchard analysis was added a solution diluted in another manner). After stirring for 5 minutes on a plate mixer, the plate was allowed to stand at room temperature for 1 hour. Then, the plate was washed four times with the buffer A and added with 100 μl/well of an enhancement reagent (DELFIA). The plate was shaken for 5 minutes on a plate mixer, followed by measurement of fluorescence intensity by a time-resolved fluorometer (DELFIA Wallac). From the binding ratio available by the following calculation formula: ((FT−FNS)−(FI−FNS))/(FT−FNS)×100, the IC50 (concentration inhibiting 50% of binding of CHO cells with hVCAM-1 D1D7-IgG) of the test compound was determined. In the above formula, FT means the fluorescence intensity of the well free of the test compound, FNS means the fluorescence intensity of the well free of the test compound and anti-hα4 antibody (SG/73), and FI means the fluorescence intensity of the well containing the test compound. The Kd indicating the binding strength and Bmax (maximum binding) were estimated within a range of 0.06 to 20 nM in accordance with the Scatchard analysis method.
# The value Ki was calculated based on:
# [formula] ((L) means a ligand concentration). (* buffer A: 25 mM HEPES (pH 7.5), 150 mM NaCl, 1 mM Ca^2+, 1 MM Mg^2+, 4 mM Mn^2+; ** assay buffer: 25 mM HEPES (pH 7.5), 150 mM NaCl, 1 mM Ca^2+, 1 mM Mg^2+, 4 mM Mn^2+, 0.1% BSA, 20 μM DTPA, with/without 6% ALBUMIN, HUMAN SERUM (C/N A-1653, SIGMA)) In vitro Evaluation Test (2)
# T1 sequence (P13612 34-1032): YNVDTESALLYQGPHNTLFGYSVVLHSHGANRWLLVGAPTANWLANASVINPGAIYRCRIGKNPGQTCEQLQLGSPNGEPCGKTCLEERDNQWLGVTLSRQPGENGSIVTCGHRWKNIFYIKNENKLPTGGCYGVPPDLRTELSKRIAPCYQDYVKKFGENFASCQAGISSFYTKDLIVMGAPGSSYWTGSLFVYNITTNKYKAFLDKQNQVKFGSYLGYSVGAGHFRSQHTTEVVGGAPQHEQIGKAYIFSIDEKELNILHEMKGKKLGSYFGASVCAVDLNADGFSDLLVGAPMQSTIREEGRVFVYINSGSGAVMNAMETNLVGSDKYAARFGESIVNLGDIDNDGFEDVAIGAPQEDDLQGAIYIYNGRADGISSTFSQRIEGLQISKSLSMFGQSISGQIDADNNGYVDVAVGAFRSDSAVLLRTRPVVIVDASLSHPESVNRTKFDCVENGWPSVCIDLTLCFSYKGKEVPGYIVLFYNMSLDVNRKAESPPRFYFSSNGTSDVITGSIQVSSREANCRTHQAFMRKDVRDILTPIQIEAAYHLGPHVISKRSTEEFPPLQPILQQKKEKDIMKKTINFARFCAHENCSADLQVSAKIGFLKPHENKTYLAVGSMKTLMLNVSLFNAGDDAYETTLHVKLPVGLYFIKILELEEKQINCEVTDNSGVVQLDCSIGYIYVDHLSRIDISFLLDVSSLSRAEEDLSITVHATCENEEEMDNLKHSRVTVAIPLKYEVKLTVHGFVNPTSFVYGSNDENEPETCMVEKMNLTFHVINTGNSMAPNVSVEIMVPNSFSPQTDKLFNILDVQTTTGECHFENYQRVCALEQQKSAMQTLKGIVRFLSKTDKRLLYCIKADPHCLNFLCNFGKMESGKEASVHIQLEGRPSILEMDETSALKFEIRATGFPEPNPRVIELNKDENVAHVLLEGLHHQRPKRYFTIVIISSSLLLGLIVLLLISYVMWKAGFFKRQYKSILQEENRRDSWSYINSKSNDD
# T1 sequence (P05556 21-798): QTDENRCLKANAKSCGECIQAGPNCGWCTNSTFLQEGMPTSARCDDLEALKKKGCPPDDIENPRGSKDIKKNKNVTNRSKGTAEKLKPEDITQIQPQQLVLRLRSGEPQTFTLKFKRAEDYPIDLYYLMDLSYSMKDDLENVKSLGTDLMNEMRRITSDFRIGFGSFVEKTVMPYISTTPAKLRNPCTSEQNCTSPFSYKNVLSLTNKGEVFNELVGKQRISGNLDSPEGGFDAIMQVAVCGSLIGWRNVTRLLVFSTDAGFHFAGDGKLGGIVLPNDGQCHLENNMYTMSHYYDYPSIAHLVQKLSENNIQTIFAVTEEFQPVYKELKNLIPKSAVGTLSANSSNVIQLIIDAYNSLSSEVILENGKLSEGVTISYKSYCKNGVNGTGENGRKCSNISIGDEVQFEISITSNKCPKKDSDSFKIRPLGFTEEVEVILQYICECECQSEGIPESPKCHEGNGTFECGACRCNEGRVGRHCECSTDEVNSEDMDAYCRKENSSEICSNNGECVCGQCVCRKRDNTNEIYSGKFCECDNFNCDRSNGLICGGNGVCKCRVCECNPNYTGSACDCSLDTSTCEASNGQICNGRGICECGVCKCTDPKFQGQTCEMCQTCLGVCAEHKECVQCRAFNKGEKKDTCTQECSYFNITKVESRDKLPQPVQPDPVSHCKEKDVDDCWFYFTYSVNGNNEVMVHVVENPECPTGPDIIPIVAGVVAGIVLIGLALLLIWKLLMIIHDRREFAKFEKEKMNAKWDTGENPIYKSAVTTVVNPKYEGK
row,SMILES,pKi
1,"Cn1cc(-c2nc3ccc(CC(=O)N4C[C@@H](F)C[C@H]4CN[C@H]4CC[C@H](C(=O)O)CC4)c(F)c3o2)c2ccccc21 [Example 108, trans-4-(N-(1-((7-Fluoro-2-(1-methyl-3-indolyl)-6-benzoxazolyl)acetyl)-(4S)-fluoro-(2S)-pyrrolidinylmethyl)amino)cyclohexanecarboxylic acid]",7.68
2,"Cn1cc(C(=O)Nc2cc(F)c(CC(=O)N3C[C@@H](F)C[C@H]3CCN3CCC(C(=O)O)CC3)cc2Cl)c2ccccc21 [Example 109, 1-(2-(1-((5-Chloro-2-fluoro-4-((1-methyl-3-indolylcarbonyl)amino)phenyl)acetyl)-(4S)-fluoro-(2R)-pyrrolidinyl)ethyl)-4-piperidinecarboxylic acid]",7.60
3,"Cc1ccc(F)cc1Nc1nc2ccc(CC(=O)N3C[C@@H](F)C[C@H]3C(=O)N[C@H]3CC[C@H](C(=O)O)CC3)c(F)c2o1 [Example 110, trans-4-(((4S)-Fluoro-1-(2-(5-fluoro-2-methylphenylamino)-7-fluoro-6-benzoxazolylacetyl)-(2S)-pyrrolidinyl)carbonylamino)cyclohexanecarboxylic acid]",8.15
4,"Cn1cc(C(=O)Nc2cc(F)c(CC(=O)N3C[C@@H](F)C[C@H]3C(=O)N[C@H]3CC[C@H](C(=O)O)CC3)cc2Cl)c2ccccc21 [Example 111, trans-4-((1-(5-Chloro-2-fluoro-4-((1-methyl-3-indolylcarbonyl)amino)phenylacetyl)-(4S)-fluoro-(2S)-pyrrolidinyl)carbonylamino)cyclohexanecarboxylic acid]",8.59
5,"O=C(Nc1ccc(CC(=O)N2C[C@@H](F)C[C@H]2C(=O)N[C@H]2CC[C@H](C(=O)O)CC2)cc1Cl)c1nccc2ccccc12 [Example 112, trans-4-((1-(3-Chloro-4-((1-isoquinolinylcarbonyl)amino)phenylacetyl)-(4S)-fluoro-(2S)-pyrrolidinyl)carbonylamino)cyclohexanecarboxylic acid]",8.19
6,"Cn1cc(C(=O)Nc2cc(F)c(CC(=O)N3C[C@@H](OC4CCCCC4)C[C@H]3CO[C@H]3CC[C@H](C(=O)O)CC3)cc2Cl)c2ccccc21 [Example 119, trans-4-(1-((5-Chloro-2-fluoro-4-(1-methyl-3-indolylcarbonylamino)phenyl)acetyl)-(4S)-cyclohexyloxy-(2S)-pyrrolidinylmethoxy)cyclohexanecarboxylic acid]",8.23
7,"CN(C)C(=O)CO[C@H]1C[C@@H](CO[C@H]2CC[C@H](C(=O)O)CC2)N(C(=O)Cc2cc(Cl)c(NC(=O)c3cn(C)c4ccccc34)cc2F)C1 [Example 120, trans-4-(1-((5-Chloro-2-fluoro-4-(1-methyl-3-indolylcarbonylamino)phenyl)acetyl)-(4S)-dimethylcarbamoylmethoxy-(2S)-pyrrolidinylmethoxy)-1-cyclohexanecarboxylic acid]",8.72
8,"Cc1ccccc1Nc1nc2ccc(CC(=O)N3C[C@H](O)C[C@H]3CO[C@H]3CC[C@H](C(=O)O)CC3)cc2o1 [Example 122, trans-4-((4R)-Hydroxy-1-((2-(2-methylphenylamino)-6-benzoxazolyl)acetyl)-(2S)-pyrrolidinylmethoxy)cyclohexanecarboxylic acid]",7.54
9,"Cc1ccccc1Nc1nc2ccc(CC(=O)N3C[C@@H](S(=O)(=O)c4ccccc4)C[C@H]3CO[C@H]3CC[C@H](C(=O)O)CC3)cc2o1 [Example 124, trans-4-(1-((2-(2-Methylphenylamino)-6-benzoxazolyl)acetyl)-(4S)-phenylsulfonyl-(2S)-pyrrolidinylmethoxy)cyclohexanecarboxylic acid]",8.85
10,"CS[C@H]1C[C@@H](CO[C@H]2CC[C@H](C(=O)O)CC2)N(C(=O)Cc2ccc3nc(Nc4cc(F)ccc4C)oc3c2F)C1 [Example 126, trans-4-(1-((2-(5-Fluoro-2-methylphenylamino)-7-fluoro-6-benzoxazolyl)acetyl)-(4S)-methylthio-(2S)-pyrrolidinylmethoxy)cyclohexanecarboxylic acid]",8.70
11,"CS[C@H]1C[C@@H](CO[C@H]2CC[C@H](C(=O)O)CC2)N(C(=O)Cc2cc(Cl)c(NC(=O)c3nn(C)c4ccccc34)cc2F)C1 [Example 127, trans-4-(1-((5-Chloro2-fluoro-4-((1-methyl-3-indazolylcarbonyl)amino)phenyl)acetyl)-(4S)-methylthio-(2S)-pyrrolidinylmethoxy)cyclohexanecarboxylic acid]",8.01
12,"Cn1cc(C(=O)Nc2cc(F)c(CC(=O)N3C[C@@H](S(C)(=O)=O)C[C@H]3CO[C@H]3CC[C@H](C(=O)O)CC3)cc2Cl)c2ccccc21 [Example 128, trans-4-(1-((5-Chloro-2-fluoro-4-((1-methyl-3-indolylcarbonyl)amino)phenyl)acetyl)-(4S)-methanesulfonyl-(2S)-pyrrolidinylmethoxy)cyclohexanecarboxylic acid]",8.57
13,"Cn1nc(C(=O)Nc2cc(F)c(CC(=O)N3C[C@@H](S(C)(=O)=O)C[C@H]3CO[C@H]3CC[C@H](C(=O)O)CC3)cc2Cl)c2ccccc21 [Example 129, trans-4-(1-((5-Chloro-2-fluoro-4-((1-methyl-3-indazolylcarbonyl)amino)phenyl)acetyl)-(4S)-methanesulfonyl-(2S)-pyrrolidinylmethoxy)cyclohexanecarboxylic acid]",8.82
14,"Cn1cc(-c2nc3ccc(CC(=O)N4CCC[C@H]4CO[C@H]4CC[C@H](C(=O)O)CC4)cc3o2)c2ccc(F)cc21 [Example 131, trans-4-(1-((2-(6-Fluoro-1-methyl-3-indolyl)-6-benzoxazolyl)acetyl)-(2S)-pyrrolidinylmethoxy)-1-cyclohexanecarboxylic acid]",7.77
15,"C[C@H]1C[C@@H](CO[C@H]2CC[C@H](C(=O)O)CC2)N(C(=O)Cc2cc(Cl)c(NC(=O)c3cn(C)c4ccccc34)cc2F)C1 [Example 133, trans-4-(1-(5-Chloro-2-fluoro-4-((1-methyl-1H-3-indolylcarbonyl)amino)phenylacetyl)-(4S)-methyl-(2S)-pyrrolidinylmethoxy)cyclohexanecarboxylic acid]",7.66
16,Cc1ccc(F)cc1Nc1nc2ccc(CC(=O)N3C[C@@H](C)C[C@H]3CO[C@H]3CC[C@H](C(=O)O)CC3)c(F)c2o1 [Example 134],8.51
17,"C[C@H]1C[C@@H](CO[C@H]2CC[C@H](C(=O)O)CC2)N(C(=O)Cc2cc(Cl)c(NC(=O)c3nn(C)c4ccccc34)cc2F)C1 [Example 135, trans-4-(1-(5-Chloro-2-fluoro-4-((1-methyl-1H-3-indazolylcarbonyl)amino)phenylacetyl)-(4S)-methyl-(2S)-pyrrolidinylmethoxy)cyclohexanecarboxylic acid]",7.72
18,"Cc1ccc(F)cc1Nc1nc2ccc(CC(=O)N3[C@H](CO[C@H]4CC[C@H](C(=O)O)CC4)CC[C@@H]3C)c(F)c2o1 [Example 137, trans-4-(1-((2-(5-Fluoro-2-methylphenylamino)-7-fluoro-6-benzoxazolyl)acetyl)-(5S)-methyl-(2S)-pyrrolidinylmethoxy)cyclohexanecarboxylic acid]",8.25
19,"COC[C@H]1C[C@@H](CO[C@H]2CC[C@H](C(=O)O)CC2)N(C(=O)Cc2ccc3nc(Nc4cc(F)ccc4C)oc3c2F)C1 [Example 140, trans-4-(1-(7-Fluoro-2-(5-fluoro-2-methylphenylamino)-6-benzoxazolylacetyl)-(4S)-methoxymethyl-(2S)-pyrrolidinylmethoxy)cyclohexanecarboxylic acid]",8.74
20,"CC(=O)N(C)[C@H]1C[C@@H](CO[C@H]2CC[C@H](C(=O)O)CC2)N(C(=O)Cc2cc(Cl)c(NC(=O)c3cn(C)c4ccccc34)cc2F)C1 [Example 142, trans-4-(1-((5-Chloro-2-fluoro-4-(1-methyl-3-indolylcarbonylamino)phenyl)acetyl)-(4S)-(N-methylacetamido)-(2S)-pyrrolidinylmethoxy)-1-cyclohexanecarboxylic acid]",7.74
21,"C[C@@H](CO[C@H]1CC[C@H](C(=O)O)CC1)N(C)C(=O)Cc1cc(Cl)c(NC(=O)c2cn(C)c3ccccc23)cc1F [Example 144, trans-4-((2S)-((5-Chloro-2-fluoro-4-(1-methyl-3-indolylcarbonylamino)phenyl)-N-methylacetamido)-1-propoxy)-1-cyclohexanecarboxylic acid]",7.32
22,"Cc1ccc(F)cc1Nc1nc2ccc(CC(=O)N(C)[C@@H](C)CO[C@H]3CC[C@H](C(=O)O)CC3)c(F)c2o1 [Example 145, trans-4-((2S)-((7-Fluoro-2-((5-fluoro-2-methylphenyl)amino)-6-benzoxazolyl)-N-methylacetamido)-1-propoxy)-1-cyclohexanecarboxylic acid]",7.74
